Read-outs that look alike come from different tables or passages of the source.
Key:
MCF-7 tumors [1] = format: in vivo; settings: for T/C / TGI: PG-D37
Method: The in vivo anti-tumor efficacy of the compound of formula (I) either alone or in combination with fulvestrant on MCF-7 breast tumor model on female Balb/c nude mice was assessed. MCF-7 cells are a breast cancer cell line that is HR+HER2−. See Booms et al., (2019) Cancer Epidemiol Biomarkers Prev 28(10); 1735-1745, which is hereby incorporated by reference.
The study was in two parts. The first part was designed to measure tumor growth inhibition (TGI). The second part was used to measure pharmacokinetic and pharmacodynamic (PKPD) parameters. In the studies, the compound of formula (I) was dosed orally (po) and fulvestrant was dosed subcutaneously. […]
The MCF-7 tumor cells were maintained in vitro in MEM supplemented with 10% heat inactivated fetal bovine serum at 37° C. in an atmosphere of 5% CO2 in air. The tumor cells were routinely subcultured twice weekly. The cells growing in an exponential growth phase were harvested and counted for tumor inoculation.
Each mouse was inoculated subcutaneously at the right flank with MCF-7 (10*10^6) cells in 0.2 mL of PBS mixed with Matrigel (50:50) for tumor development. 17β-Estradiol (0.36 mg, 60-day release) pellets (Innovative Research of America Cat. No.: SE-121, pellet size: 3.0 mm) were implanted 2 days before cell inoculation.
In TGI part, the treatments was started on day 7 after cell inoculation when the average tumor volume reaches 173 mm^3. 72 mice were selected and assigned into 9 groups. The testing articles were administrated to the mice according to Table 1.
For TGI part, the major endpoint was to see if the tumor growth could be delayed or mice could be cured. Tumor size was measured twice weekly in two dimensions using a caliper, and the volume was expressed in mm^3 using the formula: V=0.5 a×b^2 where a and b are the long and short diameters of the tumor, respectively. The tumor sizes are then used for the calculation of T/C and TGI values.
The T/C value (in percent) is an indication of antitumor effectiveness; T and C are the mean volume of the treated and control groups, respectively, on a given day.
TGI was calculated for each group using the formula: TGI (%)=[1−(Ti−T0)/(Vi−V0)]×100; Ti is the average tumor volume of a treatment group on PG-Di, T0 is the average tumor volume of the treatment group on the day of treatment start, Vi is the average tumor volume of the vehicle control group on the same day with Ti, and V0 is the average tumor volume of the vehicle group on the day of treatment start.
For comparison among of tumor volume of groups 2-9 and group 1, a one-way ANOVA was performed. All the analysis were conducted using GraphPad Prism software. p<0.05 was considered to be statistically significant.

MCF-7 tumors [2] = format: in vivo; settings: 1/3/5 mg/dose SC QW, PG-D49
Method: The in vivo anti-tumor efficacy of the compound of formula (I) either alone or in combination with fulvestrant on MCF-7 breast tumor model on female Balb/c nude mice was evaluated. The protocol was he same as described in Example 1 with the exception that the dosing schedule of fulvestrant was modified.

xMDA-MB-361 breast tumor = xMDA-MB-361 breast tumor model (ER-positive/HER2-positive); format: in vivo, female BALB/c nude mice; settings: Group 2: Fulvestrant 1 mg/dose SC QW*42 days
Method: Trastuzumab, tucatinib, Compound (I), and fulvestrant were tested in a xMDA-MB-361 breast tumor model (ER-positive/HER2-positive) on female BALB/c nude mice.

xBT474 breast tumor = xBT474 breast tumor model (ER-negative/HER2-positive); settings: Group 2: Fulvestrant 1 mg/dose SC QW*28 days

With `C[C@]12CC[C@@H]3c4ccc(O)cc4C[C@@H](CCCCCCCCC[S+]([O-])CCCC(F)(F)C(F)(F)F)[C@H]3[C@@H]1CC[C@@H]2O` (stereo partly shown) [Fulvestrant, reference compound] the T/C (MCF-7 tumors [1]; 1 mg/dose QW) was 42.68%, the TGI (MCF-7 tumors [1]; 1 mg/dose QW) was 62.74% and the “Tumor volume (mean ± SEM)” value (MCF-7 tumors [1]; 1 mg/dose SC QW, day 0) was 173 ± 12 mm^3. The “Tumor volume (mean ± SEM)” value (MCF-7 tumors [1]; 1 mg/dose SC QW, day 3) was 206 ± 10 mm^3, the “Tumor volume (mean ± SEM)” value (MCF-7 tumors [1]; 1 mg/dose SC QW, day 6) was 272 ± 20 mm^3 and the “Tumor volume (mean ± SEM)” value (MCF-7 tumors [1]; 1 mg/dose SC QW, day 9) was 315 ± 33 mm^3. The “Tumor volume (mean ± SEM)” value (MCF-7 tumors [1]; 1 mg/dose SC QW, day 13) was 389 ± 50 mm^3, the “Tumor volume (mean ± SEM)” value (MCF-7 tumors [1]; 1 mg/dose SC QW, day 16) was 472 ± 47 mm^3 and the “Tumor volume (mean ± SEM)” value (MCF-7 tumors [1]; 1 mg/dose SC QW, day 20) was 595 ± 87 mm^3. For the same compound, the “Tumor volume (mean ± SEM)” value (MCF-7 tumors [1]; 1 mg/dose SC QW, day 23) was 623 ± 93 mm^3, the “Tumor volume (mean ± SEM)” value (MCF-7 tumors [1]; 1 mg/dose SC QW, day 27) was 697 ± 104 mm^3 and the “Tumor volume (mean ± SEM)” value (MCF-7 tumors [1]; 1 mg/dose SC QW, day 30) was 727 ± 116 mm^3. The “Tumor volume (mean ± SEM)” value (MCF-7 tumors [1]; 1 mg/dose SC QW, day 34) was 829 ± 130 mm^3, the “Tumor volume (mean ± SEM)” value (MCF-7 tumors [1]; 1 mg/dose SC QW, day 37) was 856 ± 140 mm^3 and the “Tumor volume (mean ± SEM)” value (MCF-7 tumors [1]; 1 mg/dose SC QW, day 41) was 859 ± 142 mm^3. For the same compound, the “Tumor volume (mean ± SEM)” value (MCF-7 tumors [1]; 1 mg/dose SC QW, day 44) was 808 ± 164 mm^3, the “Tumor volume (mean ± SEM)” value (MCF-7 tumors [1]; 1 mg/dose SC QW, day 48) was 623 ± 104 mm^3 and the T/C (MCF-7 tumors [1]; 3 mg/dose QW) was 15.70%. The TGI (MCF-7 tumors [1]; 3 mg/dose QW) was 92.26%, the “Tumor volume (mean ± SEM)” value (MCF-7 tumors [1]; 3 mg/dose SC QW, day 0) was 173 ± 13 mm^3 and the “Tumor volume (mean ± SEM)” value (MCF-7 tumors [1]; 3 mg/dose SC QW, day 3) was 181 ± 9 mm^3. For the same compound, the “Tumor volume (mean ± SEM)” value (MCF-7 tumors [1]; 3 mg/dose SC QW, day 6) was 205 ± 16 mm^3, the “Tumor volume (mean ± SEM)” value (MCF-7 tumors [1]; 3 mg/dose SC QW, day 9) was 240 ± 12 mm^3 and the “Tumor volume (mean ± SEM)” value (MCF-7 tumors [1]; 3 mg/dose SC QW, day 13) was 310 ± 25 mm^3. For the same compound, the “Tumor volume (mean ± SEM)” value (MCF-7 tumors [1]; 3 mg/dose SC QW, day 16) was 337 ± 33 mm^3, the “Tumor volume (mean ± SEM)” value (MCF-7 tumors [1]; 3 mg/dose SC QW, day 20) was 285 ± 32 mm^3 and the “Tumor volume (mean ± SEM)” value (MCF-7 tumors [1]; 3 mg/dose SC QW, day 23) was 288 ± 44 mm^3. For the same compound, the “Tumor volume (mean ± SEM)” value (MCF-7 tumors [1]; 3 mg/dose SC QW, day 27) was 275 ± 35 mm^3, the “Tumor volume (mean ± SEM)” value (MCF-7 tumors [1]; 3 mg/dose SC QW, day 30) was 294 ± 35 mm^3 and the “Tumor volume (mean ± SEM)” value (MCF-7 tumors [1]; 3 mg/dose SC QW, day 34) was 314 ± 48 mm^3. The “Tumor volume (mean ± SEM)” value (MCF-7 tumors [1]; 3 mg/dose SC QW, day 37) was 315 ± 50 mm^3, the “Tumor volume (mean ± SEM)” value (MCF-7 tumors [1]; 3 mg/dose SC QW, day 41) was 329 ± 54 mm^3 and the “Tumor volume (mean ± SEM)” value (MCF-7 tumors [1]; 3 mg/dose SC QW, day 44) was 294 ± 48 mm^3. For the same compound, the “Tumor volume (mean ± SEM)” value (MCF-7 tumors [1]; 3 mg/dose SC QW, day 48) was 228 ± 29 mm^3, the T/C (MCF-7 tumors [2]) was 38.19% and the TGI (MCF-7 tumors [2]) was 71.50%. For the same compound, the “Tumor Size” value (MCF-7 tumors [2]) was 451 mm^3, the “Tumor volume (mean ± SEM)” value (xMDA-MB-361 breast tumor; Day 0) was 157 ± 13 mm^3 and the “Tumor volume (mean ± SEM)” value (xMDA-MB-361 breast tumor; Day 3) was 185 ± 11 mm^3. For the same compound, the “Tumor volume (mean ± SEM)” value (xMDA-MB-361 breast tumor; Day 7) was 226 ± 28 mm^3, the “Tumor volume (mean ± SEM)” value (xMDA-MB-361 breast tumor; Day 10) was 321 ± 53 mm^3 and the “Tumor volume (mean ± SEM)” value (xMDA-MB-361 breast tumor; Day 14) was 489 ± 101 mm^3. The “Tumor volume (mean ± SEM)” value (xMDA-MB-361 breast tumor; Day 17) was 588 ± 153 mm^3, the “Tumor volume (mean ± SEM)” value (xMDA-MB-361 breast tumor; Day 21) was 773 ± 204 mm^3 and the “Tumor volume (mean ± SEM)” value (xMDA-MB-361 breast tumor; Day 24) was 890 ± 235 mm^3. The “Tumor volume (mean ± SEM)” value (xMDA-MB-361 breast tumor; Day 28) was 1022 ± 256 mm^3, the “Tumor volume (mean ± SEM)” value (xMDA-MB-361 breast tumor; Day 31) was 1113 ± 293 mm^3 and the “Tumor volume (mean ± SEM)” value (xMDA-MB-361 breast tumor; Day 35) was 1192 ± 330 mm^3. The “Tumor volume (mean ± SEM)” value (xMDA-MB-361 breast tumor; Day 38) was 1300 ± 344 mm^3, the “Tumor volume (mean ± SEM)” value (xMDA-MB-361 breast tumor; Day 42) was 1396 ± 356 mm^3 and the “Tumor volume (mean ± SEM)” value (xBT474 breast tumor; Day 0) was 146 ± 10 mm^3. For the same compound, the “Tumor volume (mean ± SEM)” value (xBT474 breast tumor; Day 4) was 188 ± 26 mm^3, the “Tumor volume (mean ± SEM)” value (xBT474 breast tumor; Day 7) was 187 ± 14 mm^3 and the “Tumor volume (mean ± SEM)” value (xBT474 breast tumor; Day 11) was 311 ± 55 mm^3. For the same compound, the “Tumor volume (mean ± SEM)” value (xBT474 breast tumor; Day 14) was 391 ± 55 mm^3, the “Tumor volume (mean ± SEM)” value (xBT474 breast tumor; Day 18) was 468 ± 69 mm^3 and the “Tumor volume (mean ± SEM)” value (xBT474 breast tumor; Day 21) was 532 ± 79 mm^3. The “Tumor volume (mean ± SEM)” value (xBT474 breast tumor; Day 25) was 617 ± 93 mm^3, the “Tumor volume (mean ± SEM)” value (xBT474 breast tumor; Day 28) was 741 ± 113 mm^3 and the “Tumor volume (mean ± SEM)” value (xBT474 breast tumor; Day 32) was 750 ± 115 mm^3. For the same compound, the “Tumor volume (mean ± SEM)” value (xBT474 breast tumor; Day 35) was 797 ± 121 mm^3, the “Tumor volume (mean ± SEM)” value (xBT474 breast tumor; Day 39) was 800 ± 131 mm^3 and the “Tumor volume (mean ± SEM)” value (xBT474 breast tumor; Day 42) was 843 ± 146 mm^3. For the same compound, the “Tumor volume (mean ± SEM)” value (xBT474 breast tumor; Day 46) was 816 ± 138 mm^3.
